# Test results reported in patent US6518423B1, “Benzopiperidine derivatives” (Eisai Co., Ltd., priority 1996, dated 2003).
row,melting point,Structure (SMILES)
1,241 to 242 °C,CC(C)c1nccn1Cc1ccc2c(c1)Nc1nccnc1S2
2,191 to 193 °C,O=C(c1ccccn1)c1nccn1Cc1ccc2c(c1)Nc1nccnc1S2
3,157 to 158 °C,c1cc(-c2cn(Cc3ccc4c(c3)Nc3nccnc3S4)cn2)ccn1
4,213 to 215 °C,CCOC(=O)/C=C/c1nccn1Cc1ccc2c(c1)Nc1nccnc1S2
5,173 to 176 °C,CS(=O)(=O)NCCc1cn(Cc2ccc3c(c2)Nc2nccnc2S3)cn1
6,159 to 162 °C,CS(=O)(=O)N=CNc1ccc(-c2cn(Cc3ccc4c(c3)Nc3nccnc3S4)cn2)cc1
7,264 to 266 °C,Cc1c(C(C)(C)O)ncn1Cc1ccc2c(c1)Nc1nccnc1S2
8,139 to 141 °C,c1cn(CCCc2ccc3c(c2)Nc2nccnc2S3)cn1
9,> 275 °C,O=c1c2ccccc2[nH]n1Cc1ccc2c(c1)Nc1nccnc1S2
10,183 to 184 °C,FC(F)(c1cccnc1)c1ccc2c(c1)Nc1nccnc1S2
11,65 to 70 °C,O=C(O)CSc1ccc(C(O)c2ccc3c(c2)Nc2nccnc2S3)cn1 (stereo not shown)
12,158 °C (dec.),O=C(O)C1CC2CCC(C1)N2Cc1ccc2c(c1)Nc1nccnc1S2 (stereo not shown)
13,220 °C (dec.),CN1CC2CN(Cc3ccc4c(c3)Nc3nccnc3S4)CC(C1)C2CC(=O)O (stereo not shown)
14,182 to 185 °C,CC(C)(O)CC1C2CCCC1CN(Cc1ccc3c(c1)Nc1nccnc1S3)C2 (stereo not shown)
15,88 to 92 °C,CC(CO)C1C2CCCC1CN(Cc1ccc3c(c1)Nc1nccnc1S3)C2 (stereo not shown)
16,189 to 192 °C,COCc1ccc2c(c1)Nc1nccnc1S2
17,236 to 238 °C,CS(=O)(=O)NC(=O)Cc1ccc2c(c1)Nc1nccnc1S2
18,264 to 265 °C,c1cnc2c(n1)Nc1cc(Cn3cnc4cncnc43)ccc1S2
19,277 to 280 °C,c1cnc2c(n1)Nc1cc(Cn3cnc4ncncc43)ccc1S2
20,206 to 211 °C,Cc1nc2c(nc(C)n2Cc2ccc3c(c2)Nc2nccnc2S3)c(=O)[nH]1
21,> 280 °C,CN(C)c1ncnc2c1[nH]c(=O)n2Cc1ccc2c(c1)Nc1nccnc1S2
22,> 275 °C,Cc1nc2ncncc2n1Cc1ccc2c(c1)Nc1nccnc1S2
23,197 to 202 °C,CN1CCN(c2ncnc3c2ncn3Cc2ccc3c(c2)Nc2nccnc2S3)CC1
24,166 to 170 °C,O=C(O)CCCCCCCCCCSc1ncnc2ncn(Cc3ccc4c(c3)Nc3nccnc3S4)c12
25,78 to 79 °C,CCOC(=O)CCCCCSc1ncnc2c1ncn2Cc1ccc2c(c1)Nc1nccnc1S2
26,263 to 264 °C,N#Cc1ccc2c(c1)Nc1nccnc1S2

row,melting point,Structure (SMILES)
1,222 to 223 °C,C#CC/N=C(\N)Cc1ccc2c(c1)Nc1nccnc1S2.Cl
2,> 260 °C (dec.),N/C(Cc1ccc2c(c1)Nc1nccnc1S2)=N\S(N)(=O)=O
3,251 to 254 °C,CN(C)S(=O)(=O)NC1CN=C(Cc2ccc3c(c2)Nc2nccnc2S3)NC1 (stereo not shown)
4,268 to 269 °C,CC(=O)N1CCN(C(=N)Cc2ccc3c(c2)Nc2nccnc2S3)CC1.Cl
5,233 to 234 °C (dec.),CNC(Cc1ccc2c(c1)Nc1nccnc1S2)=NC#N
6,154 to 155 °C,CCOC(=O)CCCNC(Cc1ccc2c(c1)Nc1nccnc1S2)=NC#N
7,275 to 277 °C,CC(=NC#N)NCc1ccc2c(c1)Nc1nccnc1S2
8,246 to 248 °C,N#CN=C(N)NCc1ccc2c(c1)Nc1nccnc1S2
9,226 to 228 °C,N/C(=N\[N+](=O)[O-])NCc1ccc2c(c1)Nc1nccnc1S2
10,244 to 245 °C,CS(=O)(=O)/N=C(\N)NCc1ccc2c(c1)Nc1nccnc1S2
11,127 to 129 °C,COC(=O)CC1C2CCCC1CN(Cc1ccc3c(c1)Nc1nccnc1S3)C2 (stereo not shown)
12,132 to 135 °C,OCCCCC1CCN(Cc2ccc3c(c2)Nc2nccnc2S3)CC1
13,168 °C (dec.),O=c1ccn(Cc2ccc3c(c2)Nc2ccncc2S3)cc1
14,287 to 288 °C,NC(=O)C1CCN(Cc2ccc3c(c2)Nc2nccnc2O3)CC1
15,260 to 261 °C,O=c1ccccn1Cc1ccc2c(c1)Nc1nccnc1S2
16,> 275 °C,O=c1ccn(Cc2ccc3c(c2)Nc2nccnc2S3)cc1
17,233 to 235 °C,O=C1C=CN(Cc2ccc3c(c2)Nc2nccnc2S3)CC1
18,209 to 211 °C,NC(=O)C1CCCCN1Cc1ccc2c(c1)Nc1nccnc1S2 (stereo not shown)
19,212 to 214 °C,CS(=O)(=O)/N=C/N1CCN(Cc2ccc3c(c2)Nc2nccnc2S3)CC1
20,208 to 210 °C,CNS(=O)(=O)N1CCN(Cc2ccc3c(c2)Nc2nccnc2S3)CC1
21,204 to 209 °C,CS(=O)(=O)/N=C(\N)C1CCN(Cc2ccc3c(c2)Nc2nccnc2S3)CC1
22,219 to 222 °C,CNS(=O)(=O)NC1CCN(Cc2ccc3c(c2)Nc2nccnc2O3)CC1
23,199 to 201 °C,O=S(=O)(NC1CCN(Cc2ccc3c(c2)Nc2nccnc2S3)CC1)C(F)(F)F
24,159 to 162 °C,O=C1OCCC1=C1CCN(Cc2ccc3c(c2)Nc2nccnc2S3)CC1
25,182 to 185 °C,OCC(O)C1CCN(Cc2ccc3c(c2)Nc2nccnc2S3)CC1 (stereo not shown)
26,142 to 143 °C,CON=C1CCN(Cc2ccc3c(c2)Nc2nccnc2S3)CC1

row,melting point,Structure (SMILES)
1,285 to 288 °C (dec.),Nc1c(N2CCN(Cc3ccc4c(c3)Nc3nccnc3S4)CC2)c(=O)c1=O
2,192 to 195 °C,OC1CC2CN(Cc3ccc4c(c3)Nc3nccnc3S4)CC2C1 (stereo not shown)
3,57 to 60 °C,OCCC12CCN(Cc3ccc4c(c3)Nc3nccnc3S4)CC1C2 (stereo not shown)
4,238 to 241 °C (dec.),N#CN=CN1CCN(Cc2ccc3c(c2)Nc2nccnc2S3)CC1
5,158 to 161 °C,c1cnc2c(n1)Nc1cc(CN3CCC3)ccc1S2
6,182 to 184 °C,c1cnc2c(n1)Nc1cc(CN3CCc4sccc4C3)ccc1S2
7,195 to 198 °C,CNS(=O)(=O)CCC1CCN(Cc2ccc3c(c2)Nc2nccnc2S3)CC1
8,151 to 152 °C,COCN1c2cc(C(=O)OC)ccc2Sc2nccnc21
9,226 to 230 °C (dec.),O=C(CN1CCC(C(=O)O)CC1)NCc1ccc2c(c1)Nc1nccnc1S2
10,215 to 220 °C,O=C(O)CC1CC(C2CCN(Cc3ccc4c(c3)Nc3nccnc3S4)CC2)C1 (stereo not shown)
11,114 to 116 °C,N#CC(CCC(=O)O)=C1CCN(Cc2ccc3c(c2)Nc2nccnc2S3)CC1
12,216 to 220 °C,O=C(O)/C=C1/CCCN(Cc2ccc3c(c2)Nc2nccnc2S3)C1
13,242 to 244 °C,O=C(O)C1CCN(Cc2ccc3c(c2)Nc2nccnc2O3)CC1
14,265 to 268 °C,O=C(O)c1ccc(C2CCN(Cc3ccc4c(c3)Nc3nccnc3S4)CC2)cc1
15,174 to 176 °C,COc1ccc(C2CCN(Cc3ccc4c(c3)Nc3nccnc3S4)CC2)cc1CC(=O)O
16,240 to 242 °C,O=C(O)CCC(=O)N1CCN(Cc2ccc3c(c2)Nc2nccnc2S3)CC1
17,181 to 183 °C,O=C(O)C1CN(Cc2ccc3c(c2)Nc2nccnc2S3)C1
18,225 to 226 °C,CCC1(CC(=O)O)CCN(Cc2ccc3c(c2)Nc2nccnc2S3)CC1
19,238 to 241 °C,O=C(O)C=C1CC2(CCN(Cc3ccc4c(c3)Nc3nccnc3S4)CC2)C1
20,229 to 230 °C,O=C([O-])C12CC[N+](Cc3ccc4c(c3)Nc3nccnc3S4)(CC1)CC2
21,> 275 °C,O=C(O)C1C2CN(Cc3ccc4c(c3)Nc3nccnc3S4)CC21 (stereo not shown)
22,163 °C (dec.),O=C(O)C(F)C1CCN(Cc2ccc3c(c2)Nc2nccnc2S3)CC1 (stereo not shown)
23,125 to 126 °C,COCN1c2cc(CCl)ccc2Sc2nccnc21
24,200 °C (dec.),CC1CN(Cc2ccc3c(c2)Nc2nccnc2S3)CC(C)C1CC(=O)O (stereo not shown)
25,145 °C (dec.),O=C(O)CC1CCC2(CC1)CN(Cc1ccc3c(c1)Nc1nccnc1S3)C2
26,225 to 230 °C,O=C(O)Cc1ccc(OCC2CCN(Cc3ccc4c(c3)Nc3nccnc3S4)CC2)cc1

row,melting point,Structure (SMILES)
1,229 to 230 °C (dec.),CC(CCC1CCN(CCc2ccc3c(c2)Nc2nccnc2S3)CC1)C(=O)O (stereo not shown)
2,148 to 152 °C,O=C(O)CSC1CCN(Cc2ccc3c(c2)Nc2nccnc2S3)CC1
3,253 to 255 °C,O=C(O)C=C1C2CCCC1CN(Cc1ccc3c(c1)Nc1nccnc1S3)C2
4,180 to 185 °C,CC(C)(CCC1CCN(Cc2ccc3c(c2)Nc2nccnc2S3)CC1)C(=O)O
5,218 to 220 °C,CC(CC(=O)O)C1CCN(Cc2ccc3c(c2)Nc2nccnc2S3)CC1 (stereo not shown)
6,262 to 264 °C,O=C(O)C1CCN(CCCc2ccc3c(c2)Nc2nccnc2S3)CC1
7,94 to 98 °C,CC(CCC1CCN(C(=O)NCc2ccc3c(c2)Nc2nccnc2S3)CC1)C(=O)O (stereo not shown)
8,158 to 161 °C,O=C(O)c1ccc(CC2CCN(Cc3ccc4c(c3)Nc3nccnc3S4)CC2)cc1
9,110 to 113 °C,O=C(O)CSCC1CCN(Cc2ccc3c(c2)Nc2nccnc2S3)CC1
10,194 to 196 °C,c1ccc(CN2c3ccccc3Nc3nccnc32)cc1
11,> 275 °C,CN1c2ccc(I)cc2Nc2nccnc21
12,244 to 251 °C,COCN1c2ccc(OC)cc2Nc2nccnc21
13,> 275 °C,CN1c2cc(O)ccc2Nc2nccnc21
14,> 275 °C,CN1c2cc(C#N)ccc2Nc2nccnc21
15,190 to 191 °C,CCOC(=O)/C=C/c1ccc2c(c1)Nc1nccnc1N2C
16,197 to 199 °C,OC/C=C/CN1c2ccccc2Nc2nccnc21
17,247 to 249 °C,CC(=O)NCc1ccc2c(c1)Nc1nccnc1N2C
18,232 to 235 °C,CCOC(=O)C#Cc1ccc2c(c1)Nc1nccnc1N2C
19,165 to 166 °C,Cc1cccc2c1Sc1nccnc1N2
20,208 to 212 °C,c1ccc(NCc2ccc3c(c2)Nc2nccnc2S3)nc1
21,173 to 175 °C,c1cnc2c(n1)Nc1cc(CNCC3CCNCC3)ccc1S2
22,230 to 235 °C,Cc1cc(NCc2ccc3c(c2)Nc2nccnc2S3)cc(C)n1
23,145 to 148 °C,CC(C)Oc1ccc(NCc2ccc3c(c2)Nc2nccnc2S3)cn1
24,138 to 142 °C,OCCc1ccc(NCc2ccc3c(c2)Nc2nccnc2S3)cn1
25,118 to 122 °C,CCOC(=O)CSc1ccc(NCc2ccc3c(c2)Nc2nccnc2S3)cn1
